Results: US7763615B2, “Ecteinascidin analogs for use as antitumour agents” (priority 2001, dated 2010)
Read-outs that look alike come from different tables or passages of the source.

Legend:
[1] = tested on: L8, normal rat skeletal muscle cells; conditions: 24 h
Description: (§8) In order to assess the cytotoxicity of the drugs to normal cells, we used 96 well plates plated at a density of 5000 cells per well (except for the FDC-P1 which were plated at 12,000 cells per well) with normal cell lines (ATCC, Table 1) maintained as per the directions of the ATCC: AML-12, normal mouse liver cells; NRK-52E, normal rat kidney cells; L8, normal rat skeletal muscle cells; FDC-P1, normal mouse myelogeous stem cells; and H9c2 (2-1), normal rat cardiac muscle cells. The cells in each plate were permitted to settle overnight before adding the test drug.
(§9) To each well (100 μl medium) 10 μl of drug in media was added at varying concentrations (1×10-10-0.01 mg/ml final concentration) and further incubated overnight at 37° C. with 5% CO2. After 24 h the following assays were performed. All experiments were repeated at least 3 times and were assayed in duplicate.
(§10) MTS assay (CellTiter 96 aqueous) was performed according to the manufacturer's (Promega) directions (for all cell types). Cell viability (mitochondrial activity) is determined via enzymatic conversion of the formazan substrate.

[2] = tested on: AML-12, normal mouse liver cells; conditions: 24 h
Description: as §8, §9, §10

SK-BR3 = assay: cells; type: cell-based; conditions: SK-BR3, 48 hours exposure, SRB; for CC50: read-out: LC50
How it was run: (§1)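 Continuous 48 h drug exposure of attached human cancer cells (5×10^3/well, RPMI 1640, 10% FBS), doses 10 to 10^−8 μg/ml. Endpoint is SRB staining after TCA fixation, read at 490 nm. GI, TGI and LC calculated from triplicate means.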

HT29 = assay: cells; type: cell-based
How it was run: as §1

LOVO = assay: cells; type: cell-based; conditions: LOVO, 48 hours exposure, SRB; for CC50: read-out: LC50
How it was run: as §1

K562 = assay: cells; type: cell-based
How it was run: as §1

PANC-1 = assay: cells; type: cell-based; conditions: PANC-1, 48 hours exposure, SRB; for CC50: read-out: LC50
How it was run: as §1

IGROV-ET = assay: cells; type: cell-based; conditions: IGROV-ET, 48 hours exposure, SRB; for CC50: read-out: LC50
How it was run: as §1

LNCAP = assay: cells; type: cell-based; conditions: LNCAP, 48 hours exposure, SRB; for CC50: read-out: LC50
How it was run: as §1

MEL-28 = assay: cells; type: cell-based
How it was run: as §1

IGROV = assay: cells; type: cell-based; conditions: for GI50 / TGI: 48 hours exposure, SRB; for CC50: read-out: LC50, 48 hours exposure, SRB
How it was run: as §1

A549 = assay: cells; type: cell-based; conditions: A549, 48 hours exposure, SRB; for GI50: read-out: GI50; for CC50: read-out: LC50
How it was run: as §1

DU145 = assay: cells; type: cell-based; conditions: DU145, 48 hours exposure, SRB; for CC50: read-out: LC50
How it was run: as §1

LOVO-DOX = assay: cells; type: cell-based; conditions: LOVO-DOX, 48 hours exposure, SRB; for CC50: read-out: LC50
How it was run: as §1

SK-OV3 = assay: Inhibition of cells growth by colorimetric assay (SRB), SK-OV3; type: cell-based; conditions: SK-OV3, 48 hours exposure, SRB; for CC50: read-out: LC50
Description: (§2) The finality of these assays is to interrupt the growth of a “in vitro” tumor cell culture by means of a continued exhibition of the cells to the sample to be testing.
(§3) A colorimetric type of assay, using sulphorhodamine B (SRB) reaction has been adapted for a quantitative measurement of cell growth and viability [following the technique described by Philip Skehan, et al. (1990), New colorimetric cytotoxicity assay for anticancer drug screening, J. Natl. Cancer Inst., 82:1107-1112]
(§4) This form of the assay employs 96 well cell culture microplates of 9 mm diameter (Faircloth, 1988; Mosmann, 1983). Most of the cell lines are obtained from American Type Culture Collection (ATCC) derived from different human cancer types.
(§5) Cells are maintained in RPMI 1640 10% FBS, supplemented with 0.1 g/l penicillin and 0.1 g/l streptomycin sulphate and then incubated at 37° C., 5% CO2 and 98% humidity. For the experiments, cells were harvested from subconfluent cultures using trypsin and resuspended in fresh medium before plating.
(§6) Cells are seeded in 96 well microtiter plates, at 5×10^3 cells per well in aliquots of 195 μl medium, and they are allowed to attach to the plate surface by growing in drug free medium for 18 hours. Afterward, samples are added in aliquots of 5 μl in a ranging from 10 to 10^−8 μg/ml, dissolved in DMSO/EtOH/PBS (0.5:0.5:99). After 48 hours exposure, the antitumor effect are measured by the SRB methodology: cells are fixed by adding 50 μl of cold 50% (wt/vol) trichloroacetic acid (TCA) and incubating for 60 minutes at 4° C. Plates are washed with deionized water and dried. One hundred μl of SRB solution (0.4% wt/vol in 1% acetic acid) is added to each microtiter well and incubated for 10 minutes at room temperature. Unbound SRB is removed by washing with 1% acetic acid. Plates are air dried and bound stain is solubilized with Tris buffer. Optical densities are read on a automated spectrophotometric plate reader at a single wavelength of 490 nm.
(§7) The values for mean+/− SD of data from triplicate wells are calculated. Some parameters for cellular responses can be calculated: GI=growth inhibition, TGI=total growth inhibition (cytostatic effect) and LC=cell killing (cytotoxic effect).

H-MEC-1 = assay: Inhibition of cells growth by colorimetric assay (SRB), H-MEC-1; type: cell-based; conditions: H-MEC-1, 48 hours exposure, SRB; for CC50: read-out: LC50
Description: as §2, §3, §4, §5, §6, §7

[3] = tested on: NRK-52E, normal rat kidney cells; conditions: 24 h
Description: as §8, §9, §10

[4] = tested on: FDC-P1, normal mouse myelogeous stem cells; conditions: 24 h
Description: as §8, §9, §10

[5] = Homo sapiens, SK-MEL-28, 48 h, MEL-28, 48 hours exposure, SRB

COc1c(C)cc2c(c1O)[C@@H]1C3[C@@H]4SC[C@]5(C(=O)COC[C@@H](c6c7c(c(C)c(OC(C)=O)c64)OCO7)N3[C@@H](O)[C@H](C2)N1C)c1[nH]c2ccccc2c1CCN5C (some centres unmarked) [Compound 39]
Skeletal [1]: 4.58E−07 | Liver [2]: 1.14E−06 | GI50 (SK-BR3): 49.9 nM | TGI (SK-BR3): 1.10E−07 Molar | CC50 (SK-BR3): 944 nM | GI50 (HT29; HT29, 48 hours exposure, SRB): 48.5 nM | TGI (HT29; HT29, 48 hours exposure, SRB): 1.73E−05 Molar | CC50 (HT29; Homo sapiens, HT-29, 48 h, read-out: LC50, HT29, 48 hours exposure, SRB): 13000 nM | GI50 (LOVO): 32.1 nM | TGI (LOVO): 6.22E−08 Molar | CC50 (LOVO): 120 nM | CC50 (K562; Homo sapiens, K562, 48 h, read-out: LC50, K562, 48 hours exposure, SRB): 79.2 nM | GI50 (K562; K562, 48 hours exposure, SRB): 25.1 nM | TGI (K562; K562, 48 hours exposure, SRB): 4.46E−08 Molar | GI50 (PANC-1): 60.1 nM | TGI (PANC-1): 9.22E−07 Molar | CC50 (PANC-1): 13000 nM | GI50 (IGROV-ET): 82.5 nM | TGI (IGROV-ET): 4.04E−06 Molar | CC50 (IGROV-ET): 13000 nM | GI50 (LNCAP): 20.5 nM | TGI (LNCAP): 4.41E−08 Molar | CC50 (LNCAP): 94.7 nM | GI50 (MEL-28; [5]): 34.7 nM | IC (TGI) (MEL-28; [5]): 69.1 nM | CC50 (MEL-28; Homo sapiens, SK-MEL-28, 48 h, read-out: LC50, MEL-28, 48 hours exposure, SRB): 181 nM | GI50 (IGROV): 43 nM | TGI (IGROV): 8.15E−08 Molar | CC50 (IGROV): 2320 nM | TGI (A549): 8.74E−08 Molar | GI50 (A549): 46.7 nM | CC50 (A549): 2320 nM | GI50 (DU145): 55.9 nM | TGI (DU145): 2.03E−06 Molar | CC50 (DU145): 13000 nM | GI50 (LOVO-DOX): 234 nM | TGI (LOVO-DOX): 9.94E−07 Molar | CC50 (LOVO-DOX): 13000 nM | GI50 (SK-OV3): 62.4 nM | TGI (SK-OV3): 3.19E−07 Molar | CC50 (SK-OV3): 13000 nM | GI50 (H-MEC-1): 58.1 nM | TGI (H-MEC-1): 1.46E−06 Molar | CC50 (H-MEC-1): 13000 nM | Kidney [3]: 9.88E−05 | Myelo [4]: 4.10E−07

COc1c(C)cc2c(c1O)[C@@H]1C3[C@@H]4SC[C@]5(C(=O)COC[C@@H](c6c7c(c(C)c(OC(C)=O)c64)OCO7)N3[C@@H](O)[C@H](C2)N1C)c1[nH]c2ccccc2c1CCN5C (some centres unmarked) [Compound 40]
Skeletal [1]: 2.11E−07 | Liver [2]: 3.86E−08 | GI50 (SK-BR3): 2.56 nM | TGI (SK-BR3): 6.50E−09 Molar | CC50 (SK-BR3): 28 nM | GI50 (HT29; HT29, 48 hours exposure, SRB): 3.26 nM | TGI (HT29; HT29, 48 hours exposure, SRB): 1.06E−08 Molar | CC50 (HT29; read-out: LC50, HT29, 48 hours exposure, SRB): 13000 nM | GI50 (LOVO): 2.51 nM | TGI (LOVO): 5.98E−09 Molar | CC50 (LOVO): 23.8 nM | GI50 (K562; K562, 48 hours exposure, SRB): 0.843 nM | TGI (K562; K562, 48 hours exposure, SRB): 6.87E−09 Molar | CC50 (K562; read-out: LC50, K562, 48 hours exposure, SRB): 80 nM | GI50 (PANC-1): 2.82 nM | TGI (PANC-1): 7.17E−09 Molar | CC50 (PANC-1): 128 nM | GI50 (IGROV-ET): 2.42 nM | TGI (IGROV-ET): 8.66E−09 Molar | CC50 (IGROV-ET): 4800 nM | GI50 (LNCAP): 1.02 nM | TGI (LNCAP): 2.48E−09 Molar | CC50 (LNCAP): 5.88 nM | GI50 (MEL-28; MEL-28, 48 hours exposure, SRB): 19.6 nM | TGI (MEL-28; MEL-28, 48 hours exposure, SRB): 4.70E−08 Molar | CC50 (MEL-28; read-out: LC50, MEL-28, 48 hours exposure, SRB): 112 nM | GI50 (IGROV): 1.96 nM | TGI (IGROV): 4.17E−09 Molar | CC50 (IGROV): 8.86 nM | TGI (A549): 4.11E−09 Molar | GI50 (A549): 2.41 nM | CC50 (A549): 7.02 nM | GI50 (DU145): 2.35 nM | TGI (DU145): 6.41E−09 Molar | CC50 (DU145): 2450 nM | GI50 (LOVO-DOX): 30.4 nM | TGI (LOVO-DOX): 9.12E−08 Molar | CC50 (LOVO-DOX): 551 nM | GI50 (SK-OV3): 2.9 nM | TGI (SK-OV3): 6.28E−09 Molar | CC50 (SK-OV3): 13 nM | GI50 (H-MEC-1): 2.45 nM | TGI (H-MEC-1): 5.31E−09 Molar | CC50 (H-MEC-1): 11.5 nM | Kidney [3]: 2.95E−08 | Myelo [4]: 4.08E−08
